Laboratory results from patent publication US20100119613A1, “PROCESS TO ACTIVATE EXTRACTS DERIVED FROM LIVING ORGANISMS USING LONG WAVE UV IRRADIATION AND COMPOSITIONS COMPRISING SAID ACTIVATED EXTRACT” (Medizinische Universitat Wien, priority 2007, published 2010).

What was measured:
[1] = system: Heme Oxygenase 1 (HO-1); test: HO-1 mRNA expression in dermal fibroblasts (qPCR); assay type: cell-based, human; conditions: for HO-1 mRNA expression relative to non-treated control cells: dermal fibroblasts; for Effect on OxPAPC-mediated HO-1 induction: fibroblasts incubated with the ROS scavenger prior to exposure to OxPAPC
Procedure: Neonatal Human Epidermal Keratinocytes (KC) derived from foreskin are obtained from Clonetics (San Diego, Calif.). Keratinocytes are cultured in keratinocyte growth medium (KGM) up to the fifth passage. Human neonatal skin fibroblasts (FB) are obtained from Cascade Biologics (Portland, Oreg.) and grown in Dulbecco's modified Eagle's medium, Gibco (Gaithersburg, Md.) supplemented with 10% fetal calf serum (FCS) and penicillin/streptomycin (1000 U per ml, Gibco) to sub-confluence.
RNA is isolated using Trizol reagent (Invitrogen). Nine hundred ng of total RNA are reverse-transcribed with murine leukemia virus reverse transcriptase (MuLV, Applied Biosystems, Foster City, Calif.) and oligo(dT) primers. The following forward (F) and reverse (R) primers are used: HO-1: F, 5′-[…]-3′; R, 5′-[…]-3′; B2M; F 5′-[…]-3′R,5′-[…]-3′ qPCR is performed using LightCycler technology and the Fast Start SYBR Green I kit (both Roche Applied Science, Basel, Switzerland). In all assays, cDNA is amplified using a standardized program (10-min denaturing step; 55 cycles of 5 s at 95° C., […], and 15 s at 72° C.; melting point analysis in 0.1° C. steps). Quantification of target gene expression is performed using a mathematical model by Pfaffl (Pfaffl, Nucleic Acids Res. 29, e45 (2001)). The expression of the target molecule is normalized to the expression of β-2 microglobulin.
PAPC is oxidized by exposure of the dry lipid to air for 72 h to generate OxPAPC. PAPC dried to a thin film on a glass support is irradiated with UVA-1 with 160 J/cm^2 to generate UV-PAPC. For treatment with singlet oxygen all lipids are vortexed in PBS containing 20 μM Rose Bengal and irradiated with 10 J/cm^2 UVA-1 (FIGS. 5 A,B) or under a commercial 35 W halogen lamp at a distance of 30 cm for 30 minutes (FIG. 5 C). The extent of oxidation was monitored by ESI-MS as described previously (Watson, J. Biol. Chem. 272, 13597-13607 (1997)). The UVA-1 irradiated lipids are solubilized, emulsified or suspended in the respective growth medium before skin cells or the skin equivalent are treated.
Human neonatal skin fibroblasts (FB) are obtained from Cascade Biologics (Portland, Oreg.) and grown in Dulbecco's modified Eagle's medium, Gibco (Gaithersburg, Md.) supplemented with 10% fetal calf serum (FCS) and penicillin/streptomycin (1000 U per ml, Gibco) to sub-confluence.
Fibroblasts are treated with autoxidized PAPC, UVA-1 treated PAPC or UVA-1 untreated PAPC (100 μg/ml) as described in Example 1. Total RNA is isolated after 4 hours from treated cells and untreated control cells.
Relative expression of HO-1 mRNA in dermal fibroblasts is determined 4 h after stimulation with lipids or extracts as specified above using quantitative real-time PCR (qPCR). Normalization is standardized by comparison to the expression of the housekeeping gene beta-2-microglobulin (B2M) as described in Example 1.
Fibroblasts are treated with lipids or extract as described in Example 1 relating to treatment with oxPAPC. Total RNA is isolated 4 h after stimulation with 100 μg/ml of lipids or extract.

[2] = system: HO-1; conditions: literature (Ishikawa 1997); cited from earlier work
[3] = lipid not irradiated with UVA-1 in the presence of RB (FIG. 5B)
[4] = TLC fractions of OxPAPC and synthetic phospholipids (FIG. 2)

Compound: CCCCC/C=C\C/C=C\CCCCCCCC(=O)O[C@H](COC(=O)CCCCCCCCCCCCCCC)COP(=O)([O-])OCC[N+](C)(C)C [PLPC, 1-palmitoyl-2-linoleyl-sn-3-glycerophosphorylcholine]
- HO-1 mRNA expression relative to non-treated control cells [1, 3]: did not induce Heme Oxygenase 1 (HO-1) mRNA expression

Compound: CC1=C(/C=C/C(C)=C/C=C/C(C)=C/C=C/C=C(C)/C=C/C=C(C)/C=C/C2=C(C)CCCC2(C)C)C(C)(C)CCC1 [β-carotene]
- Effect on OxPAPC-mediated HO-1 induction [1]: did not significantly reduce

Compound: CCCCCCCCCCCCCCCC(=O)OC[C@H](COP(=O)([O-])OCC[N+](C)(C)C)OC(=O)CCCC(=O)O [PGPC, 1-palmitoyl-2-glutaroyl-sn-glycero-3-phosphorylcholine]
- HO-1 mRNA expression relative to non-treated control cells [1, 4]: failed to induce HO-1 expression

Compound: CCCCCCCCCCCCCC(=O)OC[C@H](COP(=O)([O-])OCC[N+](C)(C)C)OC(=O)CCCCCCCCCCCCC [DMPC, di-myristoyl-phosphorylcholine]
- HO-1 mRNA expression relative to non-treated control cells [1, 4]: failed to induce HO-1 expression

Compound: vitamin E
- Effect on OxPAPC-mediated HO-1 induction [1]: did not significantly reduce

Compound: CCCCCCCCCCCCCCCC(=O)OC[C@H](COP(=O)(O)OCC[N+](C)(C)C)OC(=O)CCCC=O [POVPC, 1-palmitoyl-2-(5-oxovaleroyl)-sn-glycero-3-phosphorylcholine]
- HO-1 mRNA expression relative to non-treated control cells [1, 4]: failed to induce HO-1 expression

Compound: CCCCCCCC/C=C\CCCCCCCC(=O)O[C@H](COC(=O)CCCCCCCCCCCCCCC)COP(=O)([O-])OCC[N+](C)(C)C [POPC, 1-palmitoyl-2-oleoyl-sn-3-glycerophosphorylcholine]
- HO-1 mRNA expression relative to non-treated control cells [1, 3]: did not induce Heme Oxygenase 1 (HO-1) mRNA expression

Compound: O=C1O[C@H]([C@@H](O)CO)C(O)=C1O [vitamin C]
- Effect on OxPAPC-mediated HO-1 induction [1]: did not significantly reduce

Compound: c1ccc(P(c2ccccc2)c2ccccc2)cc1 [TPP, triphenylphosphine]
- Effect on capacity of OxPAPC to induce HO-1 expression ([1]; OxPAPC treated with triphenylphosphine (not shown)): only slightly reduced

Compound: 1-palmitoyl-2-(epoxyisoprostane E2)-sn-glycero-3-phosphorylcholine [PEIPC]
- HO-1 expression [2]: strong inducer of HO-1 expression

Compound: CCCCCCCCCCCCCCCC(=O)OC[C@@H](O)COP(=O)([O-])OCC[N+](C)(C)C [LysoPC, 1-palmitoyl-2-lyso-sn-glycero-3-phosphorylcholine]
- HO-1 mRNA expression relative to non-treated control cells [1, 4]: failed to induce HO-1 expression
